pEC50: −log10 of the molar value.

For one test, the target named is T1, full length human TREX1 (Homo sapiens, UniProt Q9NSU2).
T1 construct: N-terminally His-Tev tagged full length human TREX1; His-Tev (His tag with TEV protease site) (N); made in house; host or cells: E. coli
T1 sequence (Q9NSU2 1-314): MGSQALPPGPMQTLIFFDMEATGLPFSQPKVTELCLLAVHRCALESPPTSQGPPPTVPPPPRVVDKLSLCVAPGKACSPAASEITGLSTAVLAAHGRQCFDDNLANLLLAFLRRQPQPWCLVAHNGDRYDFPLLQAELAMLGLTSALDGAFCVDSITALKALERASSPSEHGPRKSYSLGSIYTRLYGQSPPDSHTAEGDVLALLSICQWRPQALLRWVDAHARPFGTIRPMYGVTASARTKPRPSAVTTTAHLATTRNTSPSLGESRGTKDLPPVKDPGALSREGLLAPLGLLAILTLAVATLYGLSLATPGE
Kind of test: TREX1 Biochemical Assay (fluorescence assay, degradation of dsDNA substrate). The following applies: 150 pM TREX1, 60 nM dsDNA substrate, 25 minutes at room temperature; read-out: hTREX1 EC50. The protocol: Degradation of the dsDNA liberates free fluorophore to produce a fluorescent signal. Specifically, 7.5 μL of N-terminally His-Tev tagged full length human TREX1 (expressed in E. coli and purified in house) in reaction buffer (50 mM Tris (pH 7.4), 150 mM NaCl, 2 mM DTT, 0.1 mg/mL BSA, 0.01% (v/v) Tween-20 and 100 mM MgCl2) was added to a 384-well Black ProxiPlate Plus (Perkin Elmer) which already contained compound (150 nL) at varying concentrations as a 10-point dose-response in DMSO. To this was added 7.5 μL of dsDNA substrate (Strand A: 5′ TEX615/GCT AGG CAG 3′; Strand B: 5′ CTG CCT AGC/IAbRQSp (Integrated DNA Technologies)) in reaction buffer. Final concentrations were 150 pM TREX1, 60 nM dsDNA substrate in reaction buffer with 1.0% DMSO (v/v). After 25 minutes at room temperature, reactions were quenched by the addition of 5 μL of stop buffer (same as reaction buffer plus 200 mM EDTA). Final concentrations in the quenched reaction were 112.5 pM TREX1, 45 nM DNA and 50 mM EDTA in a volume of 20 μL. After a 5-minute incubation at room temperature, plates were read in a laser sourced Envision (Perkin-Elmer), measuring fluorescence at 615 nm following excitation w/570 nm light. IC50 values were calculated by comparing the measured fluorescence at 615 nm ratio relative to control wells pre-quenched w/stop buffer (100% inhibition) and no inhibitor (0% inhibition) controls as using non-linear least square four parameter fits and either Genedata or GraphPad Prism (GraphPad Software, Inc.).

The target in test [1] is T2, human TREX2 (residues M44-A279) (Homo sapiens, UniProt Q9BQ50).
T2 construct: human TREX2 (residues M44-A279, expressed in E. coli); His-Tev (His tag with TEV protease site) (N); made in house; host or cells: E. coli
T2 sequence (Q9BQ50 44-279 isoform Q9BQ50-1): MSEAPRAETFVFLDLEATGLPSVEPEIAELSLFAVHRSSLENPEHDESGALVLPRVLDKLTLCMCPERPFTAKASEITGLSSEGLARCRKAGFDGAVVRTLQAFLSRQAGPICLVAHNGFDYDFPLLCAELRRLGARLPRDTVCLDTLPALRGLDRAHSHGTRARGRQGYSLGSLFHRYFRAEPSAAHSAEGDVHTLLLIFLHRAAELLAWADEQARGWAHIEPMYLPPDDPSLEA
Kind of test: TREX2 Biochemical Assay (fluorescence assay, degradation of dsDNA substrate). Particulars: 2.5 nM TREX2, 60 nM dsDNA substrate, 25 minutes at room temperature; read-out: hTREX2 EC50. As to the method:
Degradation of the dsDNA liberates free fluorophore to produce a fluorescent signal. Specifically, 7.5 μL of N-terminally His-Tev tagged human TREX2 (residues M44-A279, expressed in E. coli and purified in house) in reaction buffer (50 mM Tris (pH 7.4), 150 mM NaCl, 2 mM DTT, 0.1 mg/mL BSA, 0.01% (v/v) Tween-20 and 100 mM MgCl2) was added to a 384-well Black ProxiPlate Plus (Perkin Elmer) which already contained compound (150 nL) at varying concentrations as a 10-point dose-response in DMSO. To this was added 7.5 μL of dsDNA substrate (Strand A: 5′ TEX615/GCT AGG CAG 3′; Strand B: 5′ CTG CCT AGC/IAbRQSp (IDT)) in reaction buffer. Final concentrations were 2.5 nM TREX2, 60 nM dsDNA substrate in reaction buffer with 1.0% DMSO (v/v). After 25 minutes at room temperature, reactions were quenched by the addition of 5 μL of stop buffer (same as reaction buffer plus 200 mM EDTA). Final concentrations in the quenched reaction mixture were […] TREX2, 45 nM DNA and 50 mM EDTA in a volume of 20 μL. After a 5-minute incubation at room temperature, plates were read in a laser sourced Envision (Perkin-Elmer), measuring fluorescence at 615 nm following excitation w/570 nm light. IC50 values were calculated by comparing the measured fluorescence at 615 nm ratio relative to control wells pre-quenched w/stop buffer (100% inhibition) and no inhibitor (0% inhibition) controls as using non-linear least square four parameter fits and either Genedata or GraphPad Prism (GraphPad Software, Inc.).

Consider `O=C(c1ccc(F)cc1)N(Cc1cccnc1)Cc1ccc(Cl)cc1Cl` [Compound 98], for which the results for the pEC50 (on full length human TREX1; in test [1]) were under 5.00 and under 4.00, respectively.

In the case of `O=C(c1ccccc1Oc1ccccc1)N(Cc1cccnc1)Cc1ccc(Cl)cc1Cl` [Compound 44], the pEC50 (as a rule, the EC50 on a negative log10 scale, so that one unit is a factor of ten) on full length human TREX1 was under 5.00; in test [1], under 4.00.

Take `CC[C@H](c1cccc(OC2COC2)c1Cl)N(Cc1ccc(C(=O)O)nc1)C(=O)c1cc(F)cc(F)c1` [Compound 231]: the pEC50 at full length human TREX1 is 6.00 to 7.00; in test [1], 5.00 to 6.00.

`CC[C@@H](c1cccc(OC)c1C(F)(F)F)N(Cc1ccc(C(=O)O)nc1)C(=O)c1cc(F)cc(F)c1` [Compound 197]: the pEC50 at full length human TREX1 is over 7.00; in test [1], 5.00 to 6.00.

For the compound `O=C(c1cc(F)cc(F)c1)N(Cc1cnc2c(=O)[nH]cnc2c1)Cc1ccccc1Cl` [Compound 183], the pEC50 was 6.00 to 7.00 at full length human TREX1 and 4.00 to 5.00 in test [1].

With `O=C(c1cccc(F)c1)N(Cc1ccc(C(F)(F)F)nc1)Cc1ccc(Cl)cc1Cl` [Compound 105], the pEC50 on full length human TREX1 was under 5.00; in test [1], under 4.00.

For `CS(=O)(=O)NC(=O)c1ccc(CN(Cc2cccc(Cl)c2Cl)C(=O)c2cccc(F)c2)cn1` [Compound 259], the values for the pEC50 (at full length human TREX1; in test [1]) were 5.00 to 6.00 and under 4.00, respectively.

With `O=C(c1cccc(F)c1)N(Cc1cccnc1)Cc1cccc(F)c1Cl` [Compound 137], the pEC50 at full length human TREX1 is 6.00 to 7.00; in test [1], 4.00 to 5.00.

Consider `O=C(O)c1ccc(CN(Cc2ncc3ccccc3c2Cl)C(=O)c2cc(F)cc(F)c2)cn1` [Compound 190], for which the results for the pEC50 (at full length human TREX1; in test [1]) were over 7.00 and 5.00 to 6.00, respectively.

For `CC(=O)Nc1ccc(CN(Cc2cccc(Cl)c2Cl)C(=O)c2cccc(F)c2)cn1` [Compound 214], the pEC50 was 5.00 to 6.00 on full length human TREX1 and under 4.00 in test [1].

In the case of `N#CC[C@@H](c1cccc(Cl)c1Cl)N(Cc1cccnc1)C(=O)c1cc(F)cc(F)c1` [Compound 234], the pEC50 was 5.00 to 6.00 on full length human TREX1 and 4.00 to 5.00 in test [1].

For `O=C(/C=C/c1ccco1)N(Cc1cccnc1)Cc1ccc(Cl)cc1Cl` [Compound 79], the negative logarithm of the EC50 (pEC50) was under 5.00 on full length human TREX1 and under 4.00 in test [1].

For the compound `O=C(c1ccc(Oc2ccc(Br)cc2)cc1)N(Cc1cccnc1)Cc1cc(Cl)cc(Cl)c1` [Compound 77], the pEC50 is under 5.00 at full length human TREX1 and under 4.00 in test [1].

As to `COc1cc(C(=O)N(Cc2cccnc2)Cc2cc(Cl)cc(Cl)c2)cc(Cl)c1O` [Compound 67], the results for the pEC50 (at full length human TREX1; in test [1]) were under 5.00 and under 4.00, respectively.

For `O=C(c1cc(F)cc(F)c1)N(Cc1ccc(CCO)nc1)Cc1ccc(Cl)cc1Cl` [Compound 218], the pEC50 on full length human TREX1 was 6.00 to 7.00; in test [1] it was 4.00 to 5.00.

Take `C[C@H](c1cccc(Cl)c1Cl)N(Cc1ccc(C(=O)O)nc1)C(=O)c1cc(F)cc(F)c1` [Compound 173]: the pEC50 on full length human TREX1 was 6.00 to 7.00; in test [1], 4.00 to 5.00.

With `CC[C@H](c1ccc(Cl)cc1Cl)N(Cc1cccnc1)C(=O)c1cccc(F)c1` (single isomer, unassigned) [Compound 157], the pEC50 at full length human TREX1 was 6.00 to 7.00; in test [1], 4.00 to 5.00.

As to `O=C(c1cc(F)cc(F)c1)N(Cc1ccc(-c2cc(=O)[nH][nH]2)nc1)Cc1ccccc1Cl` [Compound 221], the figures for the pEC50 (on full length human TREX1; in test [1]) were 6.00 to 7.00 and 4.00 to 5.00, respectively.

Regarding `COc1cc(C(=O)N(Cc2cccnc2)Cc2ccc(Cl)cc2Cl)cc(Br)c1OC` [Compound 32], the pEC50 at full length human TREX1 is under 5.00; in test [1], under 4.00.

As to `CC(C)Oc1ccc(C(=O)N(Cc2cccnc2)Cc2cc(Cl)cc(Cl)c2)cc1` [Compound 54], the pEC50 at full length human TREX1 was under 5.00; in test [1], under 4.00.

As for `O=C(c1ccccc1Oc1ccccc1)N(Cc1cccnc1)Cc1cc(Cl)cc(Cl)c1` [Compound 55], the values for the pEC50 (at full length human TREX1; in test [1]) were under 5.00 and under 4.00, respectively.

`O=C(O)c1ccc(CN(Cc2ccccc2Cl)C(=O)c2cc(F)cc(F)c2)cn1` [Compound 152]: the values for the pEC50 (on full length human TREX1; in test [1]) were over 7.00 and 5.00 to 6.00, respectively.

Consider `Cn1ncc2cc(CN(Cc3cccnc3)C(=O)c3cccc(F)c3)ccc21` [Compound 126], for which the figures for the pEC50 (on full length human TREX1; in test [1]) were under 5.00 and under 4.00, respectively.

As for `O=C(c1ccc(Oc2ccc(F)cc2)cc1)N(Cc1cccnc1)Cc1ccc(Cl)cc1Cl` [Compound 39], the pEC50 on full length human TREX1 was under 5.00; in test [1] it was under 4.00.

`CC(C)c1ccc(C(=O)N(Cc2cccnc2)Cc2ccc(Cl)cc2Cl)cc1` [Compound 85]: the pEC50 on full length human TREX1 is under 5.00; in test [1] it was under 4.00.

For `O=C(c1ccccc1)N(Cc1cccnc1)Cc1cc(Cl)cc(Cl)c1` [Compound 1, N-[(3,5-dichlorophenyl)methyl]-N-[(pyridin-3-yl)methyl]benzamide], the pEC50 is under 5.00 on full length human TREX1 and under 4.00 in test [1].

`CC(C)[C@H](c1ccc(Cl)cc1Cl)N(Cc1cccnc1)C(=O)c1cccc(F)c1` (single isomer, unassigned) [Compound 159]: the pEC50 on full length human TREX1 was 5.00 to 6.00; in test [1], 4.00 to 5.00.

With `Cc1cc(C(=O)N(Cc2cccnc2)Cc2ccc(Cl)cc2Cl)ccc1Br` [Compound 16], at full length human TREX1, the pEC50 is under 5.00.

Turning to `O=C(c1ccc(O)c(Cl)c1)N(Cc1cccnc1)Cc1ccc(Cl)cc1Cl` [Compound 3], the pEC50 at full length human TREX1 was under 5.00.

As to `Cc1ccc(C(=O)N(Cc2cccnc2)Cc2ccc(Cl)cc2Cl)c(Br)c1` [Compound 9], at full length human TREX1, the pEC50 was under 5.00.

For the compound `O=C(c1ccccc1F)N(Cc1cccnc1)Cc1ccc(Cl)cc1Cl` [Compound 4], on full length human TREX1, the pEC50 was under 5.00.

As to `O=C(c1cc(Cl)ccc1O)N(Cc1cccnc1)Cc1ccc(Cl)cc1Cl` [Compound 20], the pEC50 on full length human TREX1 is under 5.00.

With `O=C(c1ccc(Cl)cc1O)N(Cc1cccnc1)Cc1ccc(Cl)cc1Cl` [Compound 17], on full length human TREX1, the pEC50 is under 5.00.

Regarding `O=C(c1ccc(O)c(F)c1)N(Cc1cccnc1)Cc1ccc(Cl)cc1Cl` [Compound 21], the pEC50 at full length human TREX1 is under 5.00.

Turning to `COc1cccc(C(=O)N(Cc2cccnc2)Cc2ccc(Cl)cc2Cl)c1` [Compound 13], the pEC50 on full length human TREX1 was 5.00 to 6.00.

In the case of `O=C(c1ccc(Cl)c(Cl)c1)N(Cc1cccnc1)Cc1ccc(Cl)cc1Cl` [Compound 7], the pEC50 at full length human TREX1 is under 5.00.

`O=C(c1ccc(O)c(Br)c1)N(Cc1cccnc1)Cc1ccc(Cl)cc1Cl` [Compound 15]: the pEC50 on full length human TREX1 was under 5.00.

For `O=C(c1ccc(Cl)cc1Br)N(Cc1cccnc1)Cc1ccc(Cl)cc1Cl` [Compound 14], the pEC50 at full length human TREX1 is under 5.00.

Take `O=C(c1ccc(Br)cc1Cl)N(Cc1cccnc1)Cc1ccc(Cl)cc1Cl` [Compound 18]: at full length human TREX1, the pEC50 was under 5.00.

For `O=C(c1ccc(Cl)cc1)N(Cc1cccnc1)Cc1ccc(Cl)cc1Cl` [Compound 8], the pEC50 at full length human TREX1 is under 5.00.

These data come from US20230233541A1, “SUBSTITUTED BENZAMIDES AS MODULATORS OF TREX1” (Constellation Pharmaceuticals, Inc., priority 2020, published 2023).
